Data from article PMC9575579 (European Journal of Medicinal Chemistry, 2022).
Marks after values point to notes of the source that are not given here.

Key:
SARS-CoV-2 M^pro = SARS-CoV-2 M^pro (Severe acute respiratory syndrome coronavirus 2, UniProt P0DTD1); test: biochemical; assay type: biochemical; conditions: for IC50: M^pro SARS-COV-2 IC50
MERS-CoV M^pro = MERS-CoV M^pro (Middle East respiratory syndrome-related coronavirus, UniProt K9N7C7); test: biochemical; conditions: for inhibition at 30 µM: read-out: % of inhibition of the M^pro at 30 μM (MERS)
SARS-CoV-2 = test: microbe, parasite or virus in culture; conditions: for EC50: Severe acute respiratory syndrome coronavirus 2, Vero, 72 h
Vero E6-GFP cells = conditions: African green monkey, 2 µM

Sequence of MERS-CoV M^pro (K9N7C7 3248-3553 limits assumed): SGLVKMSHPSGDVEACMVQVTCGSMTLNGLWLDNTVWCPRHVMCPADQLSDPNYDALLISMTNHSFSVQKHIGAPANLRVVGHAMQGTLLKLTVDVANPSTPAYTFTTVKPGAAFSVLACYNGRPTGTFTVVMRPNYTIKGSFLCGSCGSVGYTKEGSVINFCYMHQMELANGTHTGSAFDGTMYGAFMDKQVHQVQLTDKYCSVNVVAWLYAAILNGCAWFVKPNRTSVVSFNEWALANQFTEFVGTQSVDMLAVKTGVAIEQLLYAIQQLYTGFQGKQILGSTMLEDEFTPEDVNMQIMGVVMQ

COc1ccc(CNC(=O)C(=O)[C@H](C[C@@H]2CCNC2=O)NC(=O)[C@@H]2CCCN2C(=O)COc2ccc(Cl)cc2Cl)c(OC)c1 [9f, (S)-1-(2-(2,4-dichlorophenoxy)acetyl)-N-((S)-4-(2,4-dimethoxybenzylamino)-3,4-dioxo-1-((S)-2-oxopyrrolidin-3-yl)butan-2-yl)pyrrolidine-2-carboxamide]
IC50 (SARS-CoV-2 M^pro): 1.93 ± 0.16 µM | IC50 (MERS-CoV M^pro): > 30 µM | inhibition at 30 µM (MERS-CoV M^pro): 59% | EC50 (SARS-CoV-2): > 100 µM

O=C(NCc1ccccc1)C(=O)[C@H](C[C@@H]1CCNC1=O)NC(=O)[C@@H]1CCCN1C(=O)COc1ccc(Cl)cc1Cl [9d, (S)–N-((S)-4-(benzylamino)-3,4-dioxo-1-((S)-2-oxopyrrolidin-3-yl)butan-2-yl)-1-(2-(2,4-dichlorophenoxy)acetyl)pyrrolidine-2-carboxamide]
Residual cell viability at the highest concentration tested (Vero E6-GFP cells): >100 (100%) ^e

O=C(NCCc1ccccc1)C(=O)[C@H](C[C@@H]1CCNC1=O)NC(=O)[C@@H]1CCCN1C(=O)OCc1ccccc1 [9a, (S)-benzyl2-((S)-3,4-dioxo-1-((S)-2-oxopyrrolidin-3-yl)-4-(phenethylamino)butan-2ylcarbamoyl)pyrrolidine-1-carboxylate]
EC50 + CP100356 (2 μM) (SARS-CoV-2): did not change | Residual cell viability at the highest concentration tested (Vero E6-GFP cells): >100 (100%) ^e

O=C(NCCc1ccccc1F)C(=O)[C@H](C[C@@H]1CCNC1=O)NC(=O)[C@@H]1CCCN1C(=O)OCc1ccccc1 [9b, (S)-benzyl2-((S)-4-(2-fluorophenethylamino)-3,4-dioxo-1-((S)-2-oxopyrrolidin-3-yl)butan-2-ylcarbamoyl)pyrrolidine-1-carboxylate]
M^pro SARS-COV-2 IC50 (SARS-CoV-2 M^pro): submicromolar range

O=C(NCCc1ccccc1)C(=O)[C@H](C[C@@H]1CCNC1=O)NC(=O)[C@@H]1CCCN1C(=O)COc1ccc(Cl)cc1Cl [9e, (S)-1-(2-(2,4-dichlorophenoxy)acetyl)-N-((S)-3,4-dioxo-1-((S)-2-oxopyrrolidin-3-yl)-4-(phenethylamino)butan-2-yl)pyrrolidine-2-carboxamide]
Residual cell viability at the highest concentration tested (Vero E6-GFP cells): >100 (100%) ^e

COc1ccccc1CCNC(=O)C(=O)[C@H](C[C@@H]1CCNC1=O)NC(=O)[C@@H]1CCCN1C(=O)OCc1ccccc1 [9c, (S)-benzyl2-((S)-4-(2-methoxyphenethylamino)-3,4-dioxo-1-((S)-2-oxopyrrolidin-3-yl)butan-2-ylcarbamoyl)pyrrolidine-1-carboxylate]
M^pro SARS-COV-2 IC50 (SARS-CoV-2 M^pro): submicromolar range

O=C(NCc1ccccc1C(F)(F)F)C(=O)[C@H](C[C@@H]1CCNC1=O)NC(=O)[C@@H]1CCCN1C(=O)COc1ccc(Cl)cc1Cl [9h, (S)-1-(2-(2,4-dichlorophenoxy)acetyl)-N-((S)-3,4-dioxo-1-((S)-2-oxopyrrolidin-3-yl)-4-(2-(trifluoromethyl)benzylamino)butan-2-yl)pyrrolidine-2-carboxamide]
IC50 (SARS-CoV-2 M^pro): > 30 µM | inhibition at 30 µM (SARS-CoV-2 M^pro; read-out: % of inhibition of the M^pro at 30 μM (SARS-CoV-2)): 57% | IC50 (MERS-CoV M^pro): > 30 µM | inhibition at 30 µM (MERS-CoV M^pro): 73% | EC50 (SARS-CoV-2): > 100 µM
